From patent US9475815B2, “Substituted benzothienyl-pyrrolotriazines and uses thereof” (Bayer Intellectual Property GmbH, priority 2012, dated 2016) come the findings set out here.

One may read the IC50 as the midpoint of a concentration-inhibition curve. For orientation: inhibition means the share of the control response that was lost under treatment.

One assay addresses human FGFR-3 (Homo sapiens (Human), UniProt P22607). Nature of the assay: FGFR-3 kinase assay (TR-FRET). The note with it: 10 μM ATP, 15 min pre-incubation with enzyme. It counts as biochemical. Background: In TR-FRET formats the signal depends on donor and acceptor labels being close together.
For a further assay, the target named is human mTOR (Homo sapiens (Human), UniProt P42345). Description: mTOR kinase assay (TR-FRET, for comparative purposes). It counts as biochemical. The note with it: for inhibition at 1 µM: read-out: mTOR % inhibition @ 1 μM, 1 μM test compound, 40 μM ATP, mean values; for mTOR % inhibition @ 1 μM: 1 μM test compound, 40 μM ATP, mean values. Here is the method:
mTOR inhibitory activity of the compounds of the present invention was quantified employing the TR-FRET based mTOR assay as described in the following paragraphs:
Test compounds were dissolved in DMSO to generate 10 mM stock solutions. These solutions were first 10-fold diluted by 100% DMSO to get 1 mM solutions in 100% DMSO, then 100-fold diluted by 50% DMSO to get 10 μM solutions in 50% DMSO.
(final concentration in the 10 μl assay volume=1 nM) in FRET buffer.
For this, the fluorescence emissions at 495 nm and 520 nm after excitation at 340 nm was measured in an Envision 2104 multilabel reader (Perkin-Elmer).

Assay [1] concerns Human umbilical vein endothelial cells (HUVEC). Description: Inhibition of growth factor-mediated cell proliferation (hFGF-2). Format: cell-based. The note with it: 72 h exposure, hFGF-2 stimulated, from averaged pIC50 values. How it is done:
Human umbilical vein endothelial cells (HUVEC) were obtained from Cellsystems (FC-0003) and grown in Vasculife VEGF complete medium (Cellsystems, LL-1020) containing 2% fetal bovine serum (FBS) at 37° C. and 5% CO2. The cells were used for proliferation assays up to passage 7.
The HUVEC cells were harvested using accutase (PAA, L11-007) and seeded in columns 2 to 12 of 96-well plates (Falcon MICROTEST tissue culture plate 96-well flat bottom, BD 353075, or μCLEAR-PLATE, black, 96-well, Greiner Bio-One, No. 655090) at a cell density of 2500 cells/well in 100 μl Vasculife VEGF complete medium with column 1 remaining empty as blank. Cells were allowed to incubate at 37° C. and 5% CO2 for at least 6 h. Then, the cells were washed once with PBS and starved overnight in Vasculife basal medium (Cellsystems, LM-0002) containing heparin, ascorbate and L-glutamine (components of the Vasculife Life Factors Kit, Cellsystems, LL-1020) as well as 0.2% FBS.
After about 18 h, the starving medium was discarded, and the cells were exposed for 72 h to 9 consecutive log or half-log concentrations of test compound in the range of 10 pM to 30 μM and to 5, 10 or 20 ng/ml hFGF-2 (recombinant human FGF basic, R&D Systems, 233-FB) in 100 μl starving medium. 10 mM stock solutions of test compounds in DMSO were diluted to 200× final concentration in DMSO resulting in a final DMSO concentration of 0.5% in all wells. Controls consisted of cells grown in starving medium only and of cells grown in hFGF-2 containing starving medium with 0.5% DMSO. To determine cell proliferation, 5 μl Alamar Blue solution (Biosource, DAL1100) was added to each well (1:20 dilution), and the cells were allowed to incubate for further 4 h at 37° C. and 5% CO2 before measuring fluorescence (ex. 535 nm, em. 595 nm) with a Spectrafluor Plus Tecan plate reader (XFLUOR4 version 4.20). In some experiments, an ATP Determination Kit (BIAFFIN GmbH, LBR-T100) was used according to the manufacturer's instructions. In each experiment, samples were assayed in triplicate, and the standard deviations were determined GraphPad Prism 5 software was used to analyze the data and to obtain IC50 values. All test compounds were assayed 2 to 10 times in independent experiments and similar results were obtained.

The target in a further assay is human FGFR-1 (Homo sapiens, UniProt P11362). Nature of the assay: FGFR-1 high ATP kinase assay (TR-FRET).
human FGFR-1, sequence (P11362 22-822 limits assumed): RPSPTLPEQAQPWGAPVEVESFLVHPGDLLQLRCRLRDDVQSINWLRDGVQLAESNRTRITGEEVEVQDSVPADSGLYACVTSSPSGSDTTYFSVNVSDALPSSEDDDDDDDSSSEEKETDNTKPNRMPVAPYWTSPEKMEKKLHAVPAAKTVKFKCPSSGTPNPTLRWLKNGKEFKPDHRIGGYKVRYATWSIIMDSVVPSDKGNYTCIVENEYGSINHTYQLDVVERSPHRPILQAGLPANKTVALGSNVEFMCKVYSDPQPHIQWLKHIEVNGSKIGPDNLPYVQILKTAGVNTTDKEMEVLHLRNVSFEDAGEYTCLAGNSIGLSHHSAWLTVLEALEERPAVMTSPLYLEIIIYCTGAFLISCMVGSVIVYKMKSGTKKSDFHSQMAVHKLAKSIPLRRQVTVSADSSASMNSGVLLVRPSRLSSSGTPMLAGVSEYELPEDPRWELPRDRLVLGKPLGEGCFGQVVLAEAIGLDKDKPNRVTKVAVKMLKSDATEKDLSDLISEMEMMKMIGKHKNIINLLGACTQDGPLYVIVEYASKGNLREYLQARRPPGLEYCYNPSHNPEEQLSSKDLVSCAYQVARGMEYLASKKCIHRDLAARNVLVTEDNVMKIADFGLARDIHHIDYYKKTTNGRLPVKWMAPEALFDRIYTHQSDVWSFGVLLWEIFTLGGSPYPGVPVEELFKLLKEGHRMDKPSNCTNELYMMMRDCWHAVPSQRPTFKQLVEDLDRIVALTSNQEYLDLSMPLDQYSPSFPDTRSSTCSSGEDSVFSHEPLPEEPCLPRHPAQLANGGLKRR

Counter-ions that a name gives are not always drawn. Like-named read-outs stand apart in the source and are kept apart here.

human mTOR, sequence (P42345 1360-2549): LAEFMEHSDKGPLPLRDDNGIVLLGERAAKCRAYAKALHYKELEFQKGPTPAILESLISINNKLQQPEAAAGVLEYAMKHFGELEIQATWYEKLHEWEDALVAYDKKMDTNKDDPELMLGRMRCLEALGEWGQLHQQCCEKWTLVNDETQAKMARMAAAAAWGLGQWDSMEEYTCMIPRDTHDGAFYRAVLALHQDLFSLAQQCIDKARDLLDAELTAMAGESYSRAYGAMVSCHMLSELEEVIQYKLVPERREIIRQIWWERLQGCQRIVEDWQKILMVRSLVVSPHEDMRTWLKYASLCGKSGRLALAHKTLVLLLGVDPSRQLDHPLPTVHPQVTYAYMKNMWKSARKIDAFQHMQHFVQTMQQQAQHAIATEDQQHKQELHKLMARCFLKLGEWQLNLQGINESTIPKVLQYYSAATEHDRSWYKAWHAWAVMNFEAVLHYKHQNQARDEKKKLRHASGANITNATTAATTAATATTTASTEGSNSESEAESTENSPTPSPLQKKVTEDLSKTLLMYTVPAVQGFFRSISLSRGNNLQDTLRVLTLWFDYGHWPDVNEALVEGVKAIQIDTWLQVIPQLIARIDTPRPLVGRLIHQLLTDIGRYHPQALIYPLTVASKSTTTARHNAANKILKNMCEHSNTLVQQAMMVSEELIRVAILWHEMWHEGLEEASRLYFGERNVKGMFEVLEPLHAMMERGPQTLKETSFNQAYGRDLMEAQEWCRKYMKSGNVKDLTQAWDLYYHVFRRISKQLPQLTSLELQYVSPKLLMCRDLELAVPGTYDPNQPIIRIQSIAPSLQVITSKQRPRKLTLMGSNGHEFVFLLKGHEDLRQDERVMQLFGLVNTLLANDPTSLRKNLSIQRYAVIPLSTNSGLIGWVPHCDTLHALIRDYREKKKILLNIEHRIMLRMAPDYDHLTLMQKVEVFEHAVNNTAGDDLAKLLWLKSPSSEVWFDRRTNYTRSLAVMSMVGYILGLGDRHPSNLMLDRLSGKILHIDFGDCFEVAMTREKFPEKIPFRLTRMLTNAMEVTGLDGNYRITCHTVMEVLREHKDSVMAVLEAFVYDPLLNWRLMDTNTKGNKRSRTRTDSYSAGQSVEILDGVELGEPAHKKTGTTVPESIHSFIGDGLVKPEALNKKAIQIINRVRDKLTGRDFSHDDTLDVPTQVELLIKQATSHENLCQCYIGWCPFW
human FGFR-3, sequence (P22607 397-806): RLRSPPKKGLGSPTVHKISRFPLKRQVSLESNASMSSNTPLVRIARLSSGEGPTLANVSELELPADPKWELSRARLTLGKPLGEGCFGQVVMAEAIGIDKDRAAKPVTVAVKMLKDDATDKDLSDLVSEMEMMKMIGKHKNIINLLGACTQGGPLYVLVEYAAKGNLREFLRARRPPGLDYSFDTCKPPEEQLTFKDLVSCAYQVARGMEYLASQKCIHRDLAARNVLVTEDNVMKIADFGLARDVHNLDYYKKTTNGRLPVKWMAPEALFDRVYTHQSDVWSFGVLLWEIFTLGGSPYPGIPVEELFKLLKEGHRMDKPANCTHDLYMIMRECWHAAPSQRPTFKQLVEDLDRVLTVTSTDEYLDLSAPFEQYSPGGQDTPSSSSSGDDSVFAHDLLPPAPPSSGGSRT

For `COc1cc(C)cc2cc(-c3cc(CN4CC[C@H](N(C)C)C4)n4ncnc(N)c34)sc12` [Example 15], the half-inhibitory concentration (IC50) was 23 nM at human FGFR-3; 180 nM in assay [1] (Homo sapiens, HUVEC, 72 h); 11.1 nM against human FGFR-1. Moreover, the inhibition at 1 µM at human mTOR was found to be 25.2%.
For `COc1cc(C)cc2cc(-c3cc(C(=O)NC4CCNC4=O)n4ncnc(N)c34)sc12` (racemic) [Example 98, rac-4-Amino-5-(7-methoxy-5-methyl-1-benzothiophen-2-yl)-N-(2-oxopyrrolidin-3-yl)pyrrolo-[2,1-f][1,2,4]triazine-7-carboxamide hydrochloride], the IC50 is 13.1 nM against human FGFR-3; 48 nM in assay [1] (Homo sapiens, HUVEC, 72 h); 9 nM against human FGFR-1. For the same molecule, at human mTOR, the inhibition at 1 µM amounted to 24.6%.
In the case of `COc1cc(C)cc2cc(-c3cc(CN4CCNC(C(=O)N(C)C)C4)n4ncnc(N)c34)sc12` (stereo not drawn) [Example 17], the IC50 on human FGFR-3 came to 36.9 nM; in assay [1] (Homo sapiens, HUVEC, 72 h) it was 150 nM; against human FGFR-1, 27.3 nM. The inhibition at 1 µM at human mTOR was determined as 34.3%.
As for `COc1cc(C)cc2cc(-c3cc(CN4CCNC(C)(C)C4)n4ncnc(N)c34)sc12` [Example 45], the inhibition at 1 µM on human mTOR was 25.9%. For the same molecule, the half-maximal inhibitory concentration (IC50) in assay [1] (Homo sapiens, HUVEC, 72 h) is 217 nM; against human FGFR-1, 18.1 nM.
Turning to `COc1cc(C)cc2cc(-c3cc(CN4CCNCC4)n4ncnc(N)c34)sc12` [Example 1, 5-(7-Methoxy-5-methyl-1-benzothiophen-2-yl)-7-(piperazin-1-ylmethyl)pyrrolo[2,1-f][1,2,4]-triazin-4-amine trihydrochloride hydrate], at human mTOR, the inhibition at 1 µM came to 17.6%. Besides, the results for the IC50 (in assay [1] (trihydrochloride hydrate); against human FGFR-1) were 36 nM and 9.9 nM, respectively.
`COc1cc(C)cc2cc(-c3cc(CN4CCNC(=O)C4)n4ncnc(N)c34)sc12` [Example 8, 4-{[4-Amino-5-(7-methoxy-5-methyl-1-benzothiophen-2-yl)pyrrolo[2,1-f][1,2,4]triazin-7-yl]-methyl}piperazin-2-one dihydrochloride]: at human mTOR, the inhibition at 1 µM worked out at 45.9%. Also, the concentration for half-maximal inhibition (IC50) in assay [1] (Homo sapiens, HUVEC, 72 h) amounted to 370 nM; on human FGFR-1, 29 nM.
Consider `COc1cc(C)cc2cc(-c3cc(CN4CCC(N(C)C)C4)n4ncnc(N)c34)sc12` (stereo not drawn) [Example 42], for which, on human mTOR, the inhibition at 1 µM was 36.3%. The IC50 in assay [1] (Homo sapiens, HUVEC, 72 h) was 130 nM; on human FGFR-1, 13.4 nM.
Turning to `COc1cc(C)cc2cc(-c3cc(COCCN4CCCC4)n4ncnc(N)c34)sc12` [Example 107, 5-(7-Methoxy-5-methyl-1-benzothiophen-2-yl)-7-{[2-(pyrrolidin-1-yl)ethoxy]methyl}pyrrolo-[2,1-f][1,2,4]triazin-4-amine hydrochloride], the IC50 stood at 46.1 nM on human FGFR-3 and 57.3 nM against human FGFR-1. Further, the inhibition at 1 µM at human mTOR worked out at 15%.
In the case of `COc1cc(C)cc2cc(-c3cc(COC[C@H](C)N)n4ncnc(N)c34)sc12` [Example 111], the results for the IC50 against human FGFR-3 and at human FGFR-1 were 85.6 nM and 82.2 nM, respectively. Moreover, at human mTOR, the inhibition at 1 µM came to 1.1%.
On to `COc1cc(C)cc2cc(-c3cc(CN4CCNC(C(N)=O)C4)n4ncnc(N)c34)sc12` (racemic) [Example 7, rac-4-{[4-Amino-5-(7-methoxy-5-methyl-1-benzothiophen-2-yl)pyrrolo[2,1-f][1,2,4]triazin-7-yl]-methyl}piperazine-2-carboxamide trihydrochloride], for which the inhibition at 1 µM at human mTOR was 43.7%. For the same molecule, the IC50 in assay [1] (Homo sapiens, HUVEC, 72 h) stood at 44 nM; against human FGFR-1, 7.8 nM.
As for `COc1cc(C)cc2cc(-c3cc(CN[C@H]4CC[C@@H](N(C)C)CC4)n4ncnc(N)c34)sc12` [Example 87], the concentration for half-maximal inhibition (IC50) against human FGFR-3 was 29.1 nM; on human FGFR-1, 13.2 nM. In addition, the inhibition at 1 µM at human mTOR worked out at 21.9%.
Take `COc1cc(C)cc2cc(-c3cc(CN4CCNCC4)n4ncnc(N)c34)sc12` [Example 2, 5-(7-Methoxy-5-methyl-1-benzothiophen-2-yl)-7-(piperazin-1-ylmethyl)pyrrolo[2,1-f][1,2,4]-triazin-4-amine]: on human mTOR, the “mTOR % inhibition @ 1 μM” value turned out to be 22.8%. The IC50 in assay [1] stood at 127 nM; on human FGFR-1 (read-out: FGFR-1 (high ATP) IC50, 2 mM ATP, 15 min pre-incubation with enzyme) it was 20.1 nM.
As for `COc1cc(C)cc2cc(-c3cc(CNC4CC4)n4ncnc(N)c34)sc12` [Example 81], the half-inhibitory concentration (IC50) came out at 110 nM against human FGFR-3 and 93.4 nM against human FGFR-1. The inhibition at 1 µM on human mTOR worked out at 44.7%.
In the same order, the values of `COc1cc(C)cc2cc(-c3cc(C(=O)N4CC[C@](C)(N)C4)n4ncnc(N)c34)sc12` [Example 97, [4-Amino-5-(7-methoxy-5-methyl-1-benzothiophen-2-yl)pyrrolo[2,1-f][1,2,4]triazin-7-yl][(3S)-3-amino-3-methylpyrrolidin-1-yl]methanone dihydrochloride] are 9.9 nM, 4.7 nM and 16.7%.
The like results for `COc1cc(C)cc2cc(-c3cc(CNC4CCCC4O)n4ncnc(N)c34)sc12` (stereo not drawn) [Example 83] were, in that order, 97.9 nM, 98.6 nM and 18.3%.
In the case of `CNC1CCN(Cc2cc(-c3cc4cc(C)cc(OC)c4s3)c3c(N)ncnn23)C1` (stereo not drawn) [Example 41], the inhibition at 1 µM at human mTOR was 25.9%. Further, the IC50 in assay [1] (Homo sapiens, HUVEC, 72 h) amounted to 49 nM; against human FGFR-1, 7.3 nM.
Consider `COc1cc(C)cc2cc(-c3cc(CNC4CCN(C)CC4)n4ncnc(N)c34)sc12` [Example 69], for which the half-maximal inhibitory concentration (IC50) was 59.9 nM against human FGFR-3 and 59.5 nM against human FGFR-1. The inhibition at 1 µM on human mTOR was found to be 4.6%.
The like results for `COc1cc(C)cc2cc(-c3cc(CN4CC(O)C(NCCO)C4)n4ncnc(N)c34)sc12` (stereo not drawn) [Example 21] were, in that order, 8 nM, 13.2 nM and 37.6%.
`COc1cc(C)cc2cc(-c3cc(CNCCN4CCC(O)CC4)n4ncnc(N)c34)sc12` [Example 58]: the IC50 against human FGFR-3 was 46.7 nM; against human FGFR-1, 36.2 nM. Besides, the inhibition at 1 µM on human mTOR amounted to 12.6%.
`COc1cc(C)cc2cc(-c3cc(CNCC(C)(C)N4CCOCC4)n4ncnc(N)c34)sc12` [Example 75]: the values for the concentration for half-maximal inhibition (IC50) on human FGFR-3 and against human FGFR-1 were 115 nM and 74.3 nM, respectively. Also, on human mTOR, the inhibition at 1 µM amounted to 18.6%.
In the same order, the values of `COc1cc(C)cc2cc(-c3cc(CN4CCNC(=O)C4(C)C)n4ncnc(N)c34)sc12` [Example 11, 4-{[4-Amino-5-(7-methoxy-5-methyl-1-benzothiophen-2-yl)pyrrolo[2,1-f][1,2,4]triazin-7-yl]-methyl}-3,3-dimethylpiperazin-2-one] are 146 nM, 95 nM and 27.8%.
The like results for `COc1cc(C)cc2cc(-c3cc(C(=O)N4CCC(O)CC4)n4ncnc(N)c34)sc12` [Example 101] were, in that order, 29.1 nM, 29.8 nM and 24.9%.
As for `COc1cc(C)cc2cc(-c3cc(CN4CC(N(C)C)C4)n4ncnc(N)c34)sc12` [Example 66], the results for the IC50 against human FGFR-3 and against human FGFR-1 were 67.2 nM and 49.6 nM, respectively. Besides, the inhibition at 1 µM at human mTOR came out at 5.9%.
With `COc1cc(C)cc2cc(-c3cc(CN4CCC(N)CC4)n4ncnc(N)c34)sc12` [Example 26], the IC50 against human FGFR-3 is 130 nM; against human FGFR-1, 82.6 nM. In addition, the “mTOR % inhibition @ 1 μM” value at human mTOR was “no inhib. effect detect”.
Consider `COc1cc(C)cc2cc(-c3cc(CNC(C)(C)CN4CCCC4)n4ncnc(N)c34)sc12` [Example 57], for which the figures for the IC50 against human FGFR-3 and against human FGFR-1 were 53.3 nM and 32.5 nM, respectively. Also, on human mTOR, the inhibition at 1 µM was found to be 16.2%.
